Results from patent US20180141962A1, “AZACARBAZOLE BTK INHIBITORS” (MERCK SHARP & DOHME CORP., priority 2015, published 2018).

Molecular target: T1, BTK enzyme (recombinant full-length BTK, hBTK) (Homo sapiens, UniProt Q06187)
T1 construct: recombinant protein from baculovirus-transfected Sf9 cells: full-length BTK, 6HIS-tag cleaved; 6HIS (cleaved yes); made in house; host or cells: baculovirus-transfected Sf9 cells
Test: Btk enzyme activity assay, LANCE TR-FRET
Type: biochemical
Details: 50 pM hBTK, 2 μM biotin-A5-peptide, 25 μM ATP; 60 minute compound & enzyme incubation; 120 minutes reaction; read-out: BTK binding potency IC50
Protocol: Btk Enzyme Activity Assay Methods
BTK enzymatic activity was determined with the LANCE (Lanthanide Chelate Excite) TR-FRET (lime-resolved fluorescence resonance energy transfer) assay. […] Phosphorylation reactions were allowed to proceed for 120 minutes. […] After 60 minutes incubation with detection reagents, reaction plates were read on a PerkinElmer EnVision plate reader using standard TR-FRET protocol. Briefly, excitation of donor molecules (Eu-chelate:anti-phospho-antibody) with a laser light source at 337 nm produces energy that can be transferred to Dylight-650 acceptor molecules if this donor:acceptor pair is within close proximity. Fluorescence intensity at both 665 nm (acceptor) and 615 nm (donor) are measured and a TR-FRET ratio calculated for each well (acceptor intensity/donor intensity). IC50 values were determined by 4 parameter robust fit of TR-FRET ratio values vs. (Log10) compound concentrations.

T1 sequence (Q06187 whole entry): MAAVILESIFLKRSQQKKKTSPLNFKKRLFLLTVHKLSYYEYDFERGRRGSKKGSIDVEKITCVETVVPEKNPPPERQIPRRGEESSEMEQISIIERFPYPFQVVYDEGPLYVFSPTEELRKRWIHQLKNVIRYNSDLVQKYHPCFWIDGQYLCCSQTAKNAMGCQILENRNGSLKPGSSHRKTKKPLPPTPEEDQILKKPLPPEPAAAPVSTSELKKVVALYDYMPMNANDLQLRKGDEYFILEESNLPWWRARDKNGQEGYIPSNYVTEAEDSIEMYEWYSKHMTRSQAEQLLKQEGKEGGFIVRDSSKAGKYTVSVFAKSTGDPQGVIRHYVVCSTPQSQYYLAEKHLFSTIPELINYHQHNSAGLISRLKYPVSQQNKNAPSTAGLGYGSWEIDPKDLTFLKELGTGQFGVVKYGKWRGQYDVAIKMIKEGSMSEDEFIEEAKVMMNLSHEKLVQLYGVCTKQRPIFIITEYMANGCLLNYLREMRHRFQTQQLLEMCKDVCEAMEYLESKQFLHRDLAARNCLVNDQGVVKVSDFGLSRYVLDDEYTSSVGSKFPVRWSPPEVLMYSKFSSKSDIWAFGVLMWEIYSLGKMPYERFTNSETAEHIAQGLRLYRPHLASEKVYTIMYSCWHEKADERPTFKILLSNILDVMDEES

Compared with `NC(=O)c1cnc(N2CCC3(CC2)CNC(=O)C3)c2c1[nH]c1ccccc12` [Example 10, 1-(3-oxo-2,8-diazaspiro[4.5]dec-8-yl)-5H-pyrido[4,3-b]indole-4-carboxamide], `NC(=O)c1cnc(N2CCC3(CCNC3=O)CC2)c2c1[nH]c1ccccc12` [Example 11, 1-(1-oxo-2,8-diazaspiro[4.5]dec-8-yl)-5H-pyrido[4,3-b]indole-4-carboxamide] is 1.6-fold higher in IC50: 19.4 nM for the first, 31.1 nM for the second. The first is the more potent here.

Compared with `COc1ccc(-c2ccc3c(c2)[nH]c2c(C(N)=O)cnc(N4CCC[C@@]5(CCN(C)C5=O)C4)c23)cn1` [Example 74, 7-(6-methoxypyridin-3-yl)-1-[(5R)-2-methyl-1-oxo-2,7-diazaspiro[4.5]dec-7-yl]-5H-pyrido[4,3-b]indole-4-carboxamide], `COc1ccc(-c2ccc3c(c2)[nH]c2c(C(N)=O)cnc(N4CCC[C@@]5(CCNC5=O)C4)c23)cn1` [Example 67, 7-(6-methoxypyridin-3-yl)-1-[(5R)-1-oxo-2,7-diazaspiro[4.5]dec-7-yl]-5H-pyrido[4,3-b]indole-4-carboxamide] is 1.6-fold higher in IC50: 8.9 nM for the first, 13.9 nM for the second.

Compared with `NC(=O)c1cnc(N2CCC[C@@]3(C2)C(=O)NC[C@@H]3c2ccccc2)c2c1[nH]c1ccccc12` (single isomer, unassigned) [Example 88, 1-[(trans)-1-oxo-4-phenyl-2,7-diazaspiro[4.5]dec-7-yl]-5H-pyrido[4,3-b]indole-4-carboxamide], `NC(=O)c1cnc(N2CCC[C@]3(C2)C(=O)NC[C@@H]3c2ccccc2)c2c1[nH]c1ccccc12` (single isomer, unassigned) [Example 89, 1-[(trans)-1-oxo-4-phenyl-2,7-diazaspiro[4.5]dec-7-yl]-5H-pyrido[4,3-b]indole-4-carboxamide] is 8.6-fold higher in IC50: 77.8 nM for the first, 669 nM for the second.

Compared with `NC(=O)c1cnc(N2CCCC3(CCNC3=O)C2)c2c1[nH]c1cc(C3CCCNC3)ccc12` (stereo not shown) [Example 44, 1-(1-oxo-2,7-diazaspiro[4.5]dec-7-yl)-7-piperidin-3-yl-5H-pyrido[4,3-b]indole-4-carboxamide], `NC(=O)c1cnc(N2CCCC3(CCNC3=O)C2)c2c1[nH]c1cc(C3CCNCC3)ccc12` (stereo in doubt) [Example 63, 1-[(5S)-1-oxo-2,7-diazaspiro[4.5]dec-7-yl]-7-piperidin-4-yl-5H-pyrido[4,3-b]indole-4-carboxamide] is 3.9-fold higher in IC50: 1.6 nM for the first, 6.3 nM for the second. The first is the more potent here.

First: NC(=O)c1cnc(N2CC3(CCNC3)C2)c2c1[nH]c1ccccc12 [Example 26, 1-(2,6-diazaspiro[3.4]oct-2-yl)-5H-pyrido[4,3-b]indole-4-carboxamide]
Second: NC(=O)c1cnc(N2CCC[C@]3(C2)C(=O)NC[C@@H]3O)c2c1[nH]c1ccccc12 [Example 24, 1-[(4R,5R)-4-hydroxy-1-oxo-2,7-diazaspiro[4.5]dec-7-yl]-5H-pyrido[4,3-b]indole-4-carboxamide]
The IC50 of the first is 18-fold higher: 160 nM for the first, 9 nM for the second.

Going from `NC(=O)c1cnc(N2CCC[C@]3(CCCN(c4ccc(F)cc4)C3=O)C2)c2c1[nH]c1ccc(F)cc12` [Example 7, 8-fluoro-1-[(6S)-8-(4-fluorophenyl)-7-oxo-2,8-diazaspiro[5.5]undec-2-yl]-5H-pyrido[4,3-b]indole-4-carboxamide] to `NC(=O)c1cnc(N2CCC[C@]3(CCCN(c4ccc(F)cc4)C3=O)C2)c2c1[nH]c1ccccc12` [Example 2, (S)-1-(8-(4-fluorophenyl)-7-oxo-2,8-diazaspiro[5.5]undecan-2-yl)-5H-pyrido[4,3-b]indole-4-carboxamide], the IC50 falls from 34.2 nM to 12.9 nM (2.7-fold). The second is the more potent here.

Compared with `CN1CCCC2(CCCN(c3ncc(C(N)=O)c4[nH]c5ccccc5c34)C2)C1=O` (stereo not shown) [Example 35, 1-(8-methyl-7-oxo-2,8-diazaspiro[5.5]undec-2-yl)-5H-pyrido[4,3-b]indole-4-carboxamide], `NC(=O)c1cnc(N2CCC[C@@]3(CCCN(c4ccc(F)cc4)C3=O)C2)c2c1[nH]c1ccccc12` [Example 1, (R)-1-(8-(4-fluorophenyl)-7-oxo-2,8-diazaspiro[5.5]undecan-2-yl)-5H-pyrido[4,3-b]indole-4-carboxamide] is 2.7-fold higher in IC50: 55.2 nM for the first, 149 nM for the second. The first is the more potent here.

First: NC(=O)c1cnc(N2CCCC3(CCNC3=O)C2)c2c1[nH]c1cc(C(=O)O)ccc12 (stereo not shown) [Example 85, 4-carbamoyl-1-(1-oxo-2,7-diazaspiro[4.5]dec-7-yl)-5H-pyrido[4,3-b]indole-7-carboxylic acid]
Second: NC(=O)c1cnc(N2CCCC3(CCNC3=O)C2)c2c1[nH]c1ccc(C(O)CO)cc12 (stereo not shown) [Example 65, 8-(1,2-dihydroxyethyl)-1-(1-oxo-2,7-diazaspiro[4.5]dec-7-yl)-5H-pyrido[4,3-b]indole-4-carboxamide]
The IC50 of the first is 27-fold higher: 448 nM for the first, 16.5 nM for the second. The second is the more potent here.

Compared with `NC(=O)c1cnc(N2CCC[C@@]3(CCNC3=O)C2)c2c1[nH]c1cc(-c3ccc(=O)[nH]c3)ccc12` [Example 68, 1-[(5R)-1-oxo-2,7-diazaspiro[4.5]dec-7-yl]-7-(6-oxo-1,6-dihydropyridin-3-yl)-5H-pyrido[4,3-b]indole-4-carboxamide], `NC(=O)c1cnc(N2CCC[C@@]3(CCNC3=O)C2)c2c1[nH]c1cc(C3CCC(=O)NC3)ccc12` (stereo partly drawn) [Example 73, 1-[(5R)-1-oxo-2,7-diazaspiro[4.5]dec-7-yl]-7-(6-oxopiperidin-3-yl)-5H-pyrido[4,3-b]indole-4-carboxamide] is 5.3-fold lower in IC50: 3.9 nM for the first, 0.74 nM for the second. The second is the more potent here.

Going from `CCN1CCC(c2ccc3[nH]c4c(C(N)=O)cnc(N5CCCC6(CCNC6=O)C5)c4c3c2)CC1` (stereo not shown) [Example 49, 8-(1-ethylpiperidin-4-yl)-1-(1-oxo-2,7-diazaspiro[4.5]dec-7-yl)-5H-pyrido[4,3-b]indole-4-carboxamide] to `NC(=O)c1cnc(N2CCCC3(CCNC3=O)C2)c2c1[nH]c1ccc(C3CCN(CC(=O)O)CC3)cc12` (stereo not shown) [Example 48, {4-[4-carbamoyl-1-(1-oxo-2,7-diazaspiro[4.5]dec-7-yl)-5H-pyrido[4,3-b]indol-8-yl]piperidin-1-yl}acetic acid], the IC50 falls from 87.3 nM to 47.6 nM (1.8-fold).

Compared with `NC(=O)c1cnc(N2CCC3(CCCN(c4ccc(F)cc4)C3=O)C2)c2c1[nH]c1ccccc12` (stereo not shown) [Example 33, 1-[7-(4-fluorophenyl)-6-oxo-2,7-diazaspiro[4.5]dec-2-yl]-5H-pyrido[4,3-b]indole-4-carboxamide], `CC(C)(C)c1ccc(N2CCC3(CCCN(c4ncc(C(N)=O)c5[nH]c6ccccc6c45)C3)CC2=O)cc1` (stereo not shown) [Example 38, 1-[9-(4-tert-butylphenyl)-8-oxo-2,9-diazaspiro[5.5]undec-2-yl]-5H-pyrido[4,3-b]indole-4-carboxamide] is 2-fold higher in IC50: 212 nM for the first, 420 nM for the second. The first is the more potent here.

First: CS(=O)(=O)N1CCC(c2ccc3c(c2)[nH]c2c(C(N)=O)cnc(N4CCCC5(CCNC5=O)C4)c23)CC1 (stereo not shown) [Example 57, 7-[1-(methylsulfonyl)piperidin-4-yl]-1-(1-oxo-2,7-diazaspiro[4.5]dec-7-yl)-5H-pyrido[4,3-b]indole-4-carboxamide]
Second: CC(C)N1CCC(c2ccc3c(c2)[nH]c2c(C(N)=O)cnc(N4CCC[C@@]5(CCNC5=O)C4)c23)CC1 [Example 71, 7-[1-(1-methylethyl)piperidin-4-yl]-1-[(5R)-1-oxo-2,7-diazaspiro[4.5]dec-7-yl]-5H-pyrido[4,3-b]indole-4-carboxamide]
The IC50 of the first is 2.5-fold higher: 2.1 nM for the first, 0.83 nM for the second. The second is the more potent here.

Going from `NC(=O)c1cnc(N2CCC[C@@]3(C2)C(=O)NC[C@@H]3O)c2c1[nH]c1ccccc12` [Example 18, 1-[(4R,5S)-4-hydroxy-1-oxo-2,7-diazaspiro[4.5]dec-7-yl]-5H-pyrido[4,3-b]indole-4-carboxamide] to `NC(=O)c1cnc(N2CCC[C@]3(C2)C(=O)NC[C@H]3O)c2c1[nH]c1ccccc12` (stereo in doubt) [Example 17, 1-[(4S,5R)-4-hydroxy-1-oxo-2,7-diazaspiro[4.5]dec-7-yl]-5H-pyrido[4,3-b]indole-4-carboxamide], the IC50 rises from 117 nM to 538 nM (4.6-fold).

Going from `NC(=O)c1cnc(N2CCCC3(CCNC3=O)C2)c2c1[nH]c1cc(C3CCNCC3)ccc12` (stereo in doubt) [Example 64, 1-[(5R)-1-oxo-2,7-diazaspiro[4.5]dec-7-yl]-7-piperidin-4-yl-5H-pyrido[4,3-b]indole-4-carboxamide] to `NC(=O)c1cnc(N2CCCC3(CCNC3=O)C2)c2c1[nH]c1ccc(C3CCNCC3)cc12` (stereo not shown) [Example 45, 1-(1-oxo-2,7-diazaspiro[4.5]dec-7-yl)-8-piperidin-4-yl-5H-pyrido[4,3-b]indole-4-carboxamide], the IC50 rises from 0.63 nM to 204 nM (320-fold). The first is the more potent here.

`CN1C[C@@H](CO)[C@@]2(CCCN(c3ncc(C(N)=O)c4[nH]c5ccccc5c34)C2)C1=O` (racemic) [Example 92, trans-1-(4-(hydroxymethyl)-2-methyl-1-oxo-2,7-diazaspiro[4.5]decan-7-yl)-5H-pyrido[4,3-b]indole-4-carboxamide] and `CNC(=O)N1CCC(c2ccc3[nH]c4c(C(N)=O)cnc(N5CCCC6(CCNC6=O)C5)c4c3c2)CC1` (stereo not shown) [Example 47, 8-[1-(methylcarbamoyl)piperidin-4-yl]-1-(1-oxo-2,7-diazaspiro[4.5]dec-7-yl)-5H-pyrido[4,3-b]indole-4-carboxamide] are within 1.5-fold of each other in IC50: 64 nM for the first, 72.6 nM for the second.

Same assay, conditions: BTK binding potency IC50 (nM), 50 pM hBTK, 2 μM biotin-A5-peptide, 25 μM ATP; 60 minute compound & enzyme incubation; 120 minutes reaction

Work on `NC(=O)c1cnc(N2CCCC3(CCNC3=O)C2)c2c1[nH]c1ccccc12` (stereo in doubt) [Example 40, 1-[(5R)-1-oxo-2,7-diazaspiro[4.5]dec-7-yl]-5H-pyrido[4,3-b]indole-4-carboxamide] yielded an IC50 of 121 nM.
